Columns and labels:
[1] = biological target: T1, CYP11B1 (steroid 11 β-hydroxylase) (Homo sapiens, UniProt P15538); assay: Cortisol cell secretion in NCI-H295R cells (in vitro inhibitory activity for CYP11B1); format: cell-based; details: compound at 1 μM
T1 construct: the NCI-H295R cells have CYP11B1 (steroid 11 β-hydroxylase); host or cells: NCI-H295R
T1 sequence (P15538 25-503): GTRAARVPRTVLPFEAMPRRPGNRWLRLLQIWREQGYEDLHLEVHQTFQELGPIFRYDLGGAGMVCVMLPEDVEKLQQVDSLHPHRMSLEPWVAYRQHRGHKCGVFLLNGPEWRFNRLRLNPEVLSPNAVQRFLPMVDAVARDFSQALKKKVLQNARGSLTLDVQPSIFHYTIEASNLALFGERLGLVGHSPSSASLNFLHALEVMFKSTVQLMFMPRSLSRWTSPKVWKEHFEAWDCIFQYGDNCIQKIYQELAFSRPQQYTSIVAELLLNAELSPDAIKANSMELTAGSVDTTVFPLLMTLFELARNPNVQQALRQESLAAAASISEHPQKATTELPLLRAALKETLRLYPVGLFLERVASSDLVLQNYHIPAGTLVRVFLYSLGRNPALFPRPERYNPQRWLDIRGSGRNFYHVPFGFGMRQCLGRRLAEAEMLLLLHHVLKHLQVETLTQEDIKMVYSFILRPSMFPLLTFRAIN
From the text: The in vitro inhibitory activities for CYP11B1 can be determined by the following assay.
The cell line NCI-H295R was originally isolated from an adrenocortical carcinoma and has been characterized in the literature through the stimulable secretion of steroid hormones and the presence of the enzymes essential for steroidogenesis. Thus, the NCI-H295R cells have CYP11B1 (steroid 11 β-hydroxylase). The cells show the physiological property of zonally undifferentiated human fetal adrenocortical cells which, however, have the capacity to produce the steroid hormones which are formed in the three, phenotypically distinguishable zones in the adult adrenal cortex.
The NCI-H295R cells (American Type Culture Collection, ATCC, Rockville, Md., USA) are grown in Dulbeoco's Modified Eagle'Ham F-12 Medium (DME/F12), which has been supplemented with Ulroser SF Serum (Soprachem, Cergy-Saint-Christophe, France), insulin, transferrin, selenite (I-T-S, Becton Dickinson Biosiences, Franklin lakes, N.J., USA) and antibiotics in 75 cm^2 cell culture vessels at 37° C. and in a 95% air-5% carbon dioxide atmosphere. The cells are subsequently transferred for colony formation into a 24-well incubation vessel. They are cultivated there in DME/F12 medium, which is now supplemented with 0.1% bovine serum instead of Ultroser SF for 24 hours. The experiment is initiated by cultivating the cells in DME/F12 medium which is supplemented with 0.1% bovine serum albumin and test compound, in the presence or absence of cell stimulants, for 72 hours. The test substance is added in a concentration range from 0.2 nanomolar to […]. Cell stimulants which can be used are angiotensin II ([…] or 100 nanomolar), potassium ions (16 millimolar), forskolin (10 micromolar) or a combination of two stimulants.
The excretion of aldosterone, cortisol, corticosterone and estradiol/estrone into the culture medium can be detected and quantified by commercially available, specific monoclonal antibodies in radioimmunoassays in accordance with the manufacturer's instructions.
(§1) Inhibition of the release of certain steroids can be used as a measure of the respective enzyme inhibition by the added test compounds. The dose-dependent inhibition of enzymatic activity by a compound is calculated by means of an inhibition plot which is characterized by an IC50.
The inhibition activity of CYP11B1 production can also be expressed in percentage inhibition (% inhibition) at a given concentration (e.g. % inhibition at 1 μM), which is the cortisol level when cell is treated with the given concentration of a compound of the invention (e.g. concentration of 1 μM) versus the cortisol excretion when cell is free of the compound of the invention. % inhibition cortisol production=[(Y′−X′)/Y′]×100 wherein X′ is the level of cortisol when the cell is treated with a compound of Formula I; and Y′ is the level of cortisol when the cell is free of compound of Formula I.

aldosterone synthase = biological target: T2, aldosterone synthase (Homo sapiens, UniProt P19099); assay: Aldosterone cell secretion in Ang II-stimulated NCI-H295R cells (SPA with anti-aldosterone antibody); format: cell-based; details: human adrenocortical carcinoma NCI-H295R cells, 1 μM Ang II, 24 h
T2 construct: host or cells: NCI-H295R
T2 sequence (P19099 25-503): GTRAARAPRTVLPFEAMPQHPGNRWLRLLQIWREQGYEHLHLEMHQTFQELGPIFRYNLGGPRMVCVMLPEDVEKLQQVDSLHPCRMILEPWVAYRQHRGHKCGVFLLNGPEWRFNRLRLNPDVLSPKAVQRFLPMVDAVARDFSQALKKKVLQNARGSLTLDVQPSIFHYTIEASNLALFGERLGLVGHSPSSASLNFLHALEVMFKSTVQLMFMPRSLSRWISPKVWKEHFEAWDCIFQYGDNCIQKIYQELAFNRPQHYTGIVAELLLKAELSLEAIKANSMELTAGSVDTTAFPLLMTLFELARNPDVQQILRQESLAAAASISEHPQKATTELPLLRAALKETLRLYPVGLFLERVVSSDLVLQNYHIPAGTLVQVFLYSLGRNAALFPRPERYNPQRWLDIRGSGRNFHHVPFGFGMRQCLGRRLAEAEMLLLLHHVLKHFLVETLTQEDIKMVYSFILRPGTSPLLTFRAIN
From the text: In particular, the aldosterone synthase inhibitory activities in vitro can be determined by the following assay.
Human adrenocortical carcinoma NCI-H295R cell line was obtained from American Type Culture Collection (Manassas, Va.). Insulin/transferrin/selenium (ITS)-A supplement (100×), DMEM/F-12, antibiotic/antimycotic (100×), and fetal bovine serum (FBS) were purchased from Invitrogen (Carlsbad, Calif.). Anti-mouse PVT scintillation proximity assay (SPA) beads and NBS 96-well plates were obtained from GE Health Sciences (Piscataway, N.J.) and Corning (Acton, Mass.), respectively. Solid black 96-well flat bottom plates were purchased from Costar (Corning, N.Y.). Aldosterone and angiotensin (Ang II) were purchased from Sigma (St. Louis, Mo.). D-[1,2,6,7-^3H(N)]aldosterone was acquired from PerkinElmer (Boston, Mass.). Nu-serum was a product of BD Biosciences (Franklin Lakes, N.J.).
On the following day, cells are rinsed with 100 μL of phosphate-buffered saline (PBS) and incubated with 100 μL of treatment medium containing 1 μM Ang II and a compound at different concentrations in quadruplicate wells at 37° C. for 24 h. At the end of incubation, 50 μL of medium is withdrawn from each well for measurement of aldosterone production by an SPA using mouse anti-aldosterone monoclonal antibodies.
Measurement of aldosterone activity can also be performed using a 96-well plate format. […] Anti-mouse PVT SPA beads (50 μL) are then added to each well and incubated overnight at room temperature prior to counting in a Microbeta plate counter. The amount of aldosterone in each sample is calculated by comparing with a standard curve generated using known quantities of the hormone.
as §1
The inhibition plot is calculated by fitting a 4-parameter logistic function to the raw data points using the least squares method. The equation of the 4-parameter logistic function is calculated as follows: Y=(d−a)/((1+(x/c)b))+a, where: a=minimum data level, b=gradient, I […], d=maximum data level, x=inhibitor concentration.

SMILES | inhibition at 1 µM ([1]; NCI-H295R) [%] | IC50 (aldosterone synthase) [nM] | IC50 (aldosterone synthase; Enantiomer 1) [nM] | IC50 (aldosterone synthase; Enantiomer 2) [nM] | inhibition at 1 µM [1] [%]
CCS(=O)(=O)NCc1cncc(-c2cc3cnc(Cl)cc3n2C)c1 [Ethanesulfonic acid [5-(6-chloro-1-methyl-1H-pyrrolo[3,2-c]pyridin-2-yl)-pyridin-3-ylmethyl]-amide] | – | 165 | – | – | 15
CCS(=O)(=O)N[C@H](c1cncc(-c2ccc(C#N)c(Cl)c2)c1)C1CC1 [(S)-N-((5-(3-chloro-4-cyanophenyl)pyridin-3-yl)(cyclopropyl)methyl)ethanesulfonamide] | 38 | 24 | – | – | –
CCS(=O)(=O)NCc1cncc(-c2cc3ccc(Cl)nc3n2C)c1 [Ethanesulfonic acid [5-(6-chloro-1-methyl-1H-pyrrolo[2,3-b]pyridin-2-yl)-pyridin-3-ylmethyl]-amide] | – | 8 | – | – | 40
CCS(=O)(=O)NCc1cncc(-c2nc3ccc(Cl)cc3n2C)c1 [N-(5-(6-chloro-1-methyl-1H-benzo[d]imidazol-2-yl)pyridin-3-yl)methyl)ethanesulfonamide] | 24 | 97 | – | – | –
CCCC(NS(=O)(=O)CC)c1cncc(-c2ccc(C#N)c(Cl)c2)c1 (racemic) [N-(1-(5-(3-chloro-4-cyanophenyl)pyridin-3-yl)butyl)ethanesulfonamide: Racemate, N-(1-(5-(3-chloro-4-cyanophenyl)pyridin-3-yl)butyl)ethanesulfonamide] | 25 | 132 | – | – | –
N#Cc1ccc(-c2cncc(CN3CCCS3(=O)=O)c2)cc1Cl [2-Chloro-4-[5-(1,1-dioxo-isothiazolidin-2-ylmethyl)-pyridin-3-yl]-benzonitrile] | 64 | 12 | – | – | –

More lines, main results first:

inhibition at 1 µM ([1]; NCI-H295R) [%] | IC50 (aldosterone synthase) [nM] | IC50 (aldosterone synthase; Enantiomer 1) [nM] | IC50 (aldosterone synthase; Enantiomer 2) [nM] | SMILES | inhibition at 1 µM [1] [%]
38 | 33 | – | – | CCS(=O)(=O)Nc1cncc(-c2ccc(C#N)c(OC)c2)c1 [N-(5-(4-cyano-3-methoxyphenyl)pyridin-3-yl)ethanesulfonamide] | –
63 | 5 | – | – | CCS(=O)(=O)N(C)C(c1cncc(-c2ccc(C#N)c(Cl)c2)c1)C1CC1 (stereo not shown) [N-((5-(3-chloro-4-cyanophenyl)pyridin-3-yl)(cyclopropyl)methyl)-N-methylethanesulfonamide] | –
32 | 77 | – | – | COc1cc(-c2cncc(NS(=O)(=O)C3CC3)c2)ccc1C#N [N-(5-(4-cyano-3-methoxyphenyl)pyridin-3-yl)cyclopropane-sulfonamide] | –
23 | 121 | – | – | CCS(=O)(=O)NC(c1ccc(F)cc1)c1cncc(-c2ccc(C#N)c(C)c2)c1 (stereo not shown) [N-(5-(4-cyano-3-methylphenyl)pyridin-3-yl)(4-fluorophenyl)methyl)ethane-sulfonamide] | –
25 | – | 111 | 41 | CCS(=O)(=O)NC(c1cncc(-c2ccc(C#N)c(OC)c2)c1)C1CC1 (single isomer, unassigned) [N-(5-(4-cyano-3-methoxyphenyl)pyridin-3-yl)(cyclopropyl)methyl)ethanesulfonamide] | –
40 | 85 | – | – | COc1cc(-c2cncc(CNS(C)(=O)=O)c2)ccc1C#N [N-((5-(4-cyano-3-methoxyphenyl)pyridin-3-yl)methyl)methane-sulfonamide] | –

— patent publication US8809545B2, “Aryl pyridine as aldosterone synthase inhibitors” (Novartis AG, priority 2009, dated 2014)
